According to patent US20250129104A1, “7H-PYRROLO[2,3-D]PYRIMIDINES AND PREPARATION AND USES THEREOF” (BioSplice Therapeutics, Inc., priority 2021, published 2025):

These compounds were tested against recombinant DYRK1A kinase (Homo sapiens (Human), UniProt Q13627) (assay: DYRK1A kinase assay (Ser/Thr 18 peptide Z-lyte FRET assay)). Conditions: DYRK1A kinase activity; 15 μM ATP, 1 h room temperature; method text calls the value IC50.
Format: biochemical
Procedure: Representative compounds were screened using the assay procedure for DYRK1A kinase activity as described below.
Each compound was dissolved in DMSO as a 10 mM stock and used to prepare compound source plates. Serial dilution (1:3, 11-point dose-response curves from 10 μM to 0.00016 μM) and compound transfer was performed using the ECHO 550 (Labcyte, Sunnyvale, CA) into 1536-well black-walled round bottom plates (Corning).
The DYRK1A kinase assay was run using the Ser/Thr 18 peptide Z-lyte assay kit according to manufacturer's instructions (Life Technologies—a Division of Thermo-Fisher). This is a non-radioactive assay using fluorescence resonance energy transfer (FRET) between coumarin and fluorescein to detect kinase activity which is represented as a ratio of coumarin emission/fluorescein emission.
Briefly, recombinant DYRK1A kinase, ATP and Ser/Thr peptide 18 were prepared in 1× Kinase buffer to final concentrations of 0.25 μg/mL, 15 μM, and 4 μM respectively. The mixture was allowed to incubate with the representative compounds for one hour at room temperature. All reactions were performed in duplicate. Unphosphorylated (“0% Control”) and phosphorylated (“100% control”) forms of Ser/Thr 18 served as control reactions. Additionally, an 11-point dose-response curve of Staurosporine (1 uM top) was run to serve as a positive compound control.
After incubation, Development Reagent A was diluted in Development Buffer then added to the reaction and allowed to further incubate for one hour at room temperature. The plate was read at Ex 400 Em […] to detect the coumarin signal and Ex 400 Em 520 to measure the signal (EnVision Multilabel Plate Reader, PerkinElmer).
The Emission ratio (Em) was calculated as a ratio of the coumarin (C) emission signal (at 445 nm)/Fluorescein (F) emission signal (at 520 nm). The percent phosphorylation was then calculated using the following formula: [1−((Em ratio×F100%)−C100%)/((C0%−C100%)+(Em ratio×(F100%−F0%)))]. Dose-response curves were generated, and inhibitory concentration (IC50) values were calculated using non-linear regression curve fit in the Dotmatics' Studies Software (Bishops Stortford, UK).

Structure (SMILES) | EC50
CC(C)(C)CNc1ncc2c(-c3ccn4nccc4n3)c[nH]c2n1 [Compound 1646, N-Neopentyl-5-(pyrazolo[1,5-a]pyrimidin-5-yl)-7H-pyrrolo[2,3-d]pyrimidin-2-amine] | 0.0191 µM
CN1CCN(c2cc(Nc3ncc4c(-c5ccc6ncccc6c5)c[nH]c4n3)ccn2)CC1 [Compound 1893, N-(2-(4-Methylpiperazin-1-yl)pyridin-4-yl)-5-(quinolin-6-yl)-7H-pyrrolo [2,3-d]pyrimidin-2-amine] | 0.0005 µM
CC(C)(C)CNc1ncc2c(-c3cc(F)c4nccn4c3)c[nH]c2n1 [Compound 197, 5-(8-Fluoroimidazo[1,2-a]pyridin-6-yl)-N-neopentyl-7H-pyrrolo[2,3-d]pyrimidin-2-amine] | 0.0754 µM
COc1ccc(-c2c[nH]c3nc(NCC(C)(C)F)ncc23)cc1 [Compound 1, N-(2-Fluoro-2-methylpropyl)-5-(4-methoxyphenyl)-7H-pyrrolo[2,3-d]pyrimidin-2-amine] | 0.236 µM
Cn1nnc2ccc(-c3c[nH]c4nc(NCC(C)(F)F)ncc34)cc21 [Compound 823, N-(2,2-Difluoropropyl)-5-(1-methyl-1H-benzo[d][1,2,3]triazol-6-yl)-7H-pyrrolo[2,3-d]pyrimidin-2-amine] | 0.006 µM
Cc1nc(OCC2CCN(C)CC2)c2c(-c3ccc4ncccc4c3)c[nH]c2n1 [Compound 1899, 6-(2-Methyl-4-((1-methylpiperidin-4-yl)methoxy)-7H-pyrrolo[2,3-d]pyrimidin-5-yl)quinoline] | 0.0186 µM
CO[C@H]1C[C@@H](Nc2ncc3c(-c4ccc5nccnc5c4)c[nH]c3n2)C1 [Compound 2076, N-(cis-3-Methoxycyclobutyl)-5-(quinoxalin-6-yl)-7H-pyrrolo[2,3-d]pyrimidin-2-amine] | 0.0057 µM
FC(F)(F)O[C@H]1CC[C@@H](Nc2ncc3c(-c4ccn5nccc5c4)c[nH]c3n2)CC1 [Compound 2104, 5-(Pyrazolo[1,5-a]pyridin-5-yl)-N-(cis-4-(trifluoromethoxy)cyclohexyl)-7H-pyrrolo[2,3-d]pyrimidin-2-amine] | 0.69 µM
Cc1nc2cc(F)c(-c3c[nH]c4nc(C5CC5)ncc34)cc2n1C(C)C [Compound 539, 2-Cyclopropyl-5-(5-fluoro-1-isopropyl-2-methyl-1H-benzo[d]imidazol-6-yl)-7H-pyrrolo[2,3-d]pyrimidine] | 0.0408 µM
C[C@@H](Nc1ncc2c(-c3ccc4nnn(C)c4c3)c[nH]c2n1)C(F)(F)F [Compound 825, (R)-5-(1-Methyl-1H-benzo[d][1,2,3]triazol-6-yl)-N-(1,1,1-trifluoropropan-2-yl)-7H-pyrrolo[2,3-d]pyrimidin-2-amine] | 0.0048 µM
CN1CCN(C(=O)c2cnn3ccc(-c4c[nH]c5ncnc(NCC6CC6)c45)cc23)CC1 [Compound 1244, (5-(4-((cyclopropylmethyl)amino)-7H-pyrrolo[2,3-d]pyrimidin-5-yl)pyrazolo[1,5-a]pyridin-3-yl)(4-methylpiperazin-1-yl)methanone] | 0.494 µM
CC(C)Nc1ncc2c(-c3ccn4ncc(C(=O)NCC5CC(F)(F)C5)c4c3)c[nH]c2n1 [Compound 1428, N-((3,3-Difluorocyclobutyl)methyl)-5-(2-(isopropylamino)-7H-pyrrolo[2,3-d]pyrimidin-5-yl)pyrazolo[1,5-a]pyridine-3-carboxamide] | 0.0114 µM

Other lines, results leading:

EC50 | Structure (SMILES)
0.0107 µM | COc1nc(NC2CCOCC2)nc2[nH]cc(-c3ccn4nccc4n3)c12 [Compound 2224, 4-Methoxy-5-(pyrazolo[1,5-a]pyrimidin-5-yl)-N-(tetrahydro-2H-pyran-4-yl)-7H-pyrrolo[2,3-d]pyrimidin-2-amine]
0.0007 µM | Cn1nnc2ccc(-c3c[nH]c4nc(N[C@H]5CC[C@@](C)(O)CC5)ncc34)cc21 [Compound 3643, (1s,4s)-1-Methyl-4-((5-(1-methyl-1H-benzo[d][1,2,3]triazol-6-yl)-7H-pyrrolo[2,3-d]pyrimidin-2-yl)amino)cyclohexan-1-ol]
0.0026 µM | C[C@]1(O)CC[C@@H](Nc2ncc3c(-c4ccc5nccnc5c4)c[nH]c3n2)CC1 [Compound 2228, cis-1-Methyl-4-((5-(quinoxalin-6-yl)-7H-pyrrolo[2,3-d]pyrimidin-2-yl)amino)cyclohexan-1-ol]
0.2 µM | [2H]C([2H])([2H])O[C@H]1CC[C@@H](Nc2nc(OC)c3c(-c4ccc5nnn(C)c5c4)c[nH]c3n2)CC1 [Compound 2285, 4-Methoxy-N-(cis-4-(methoxy-d3)cyclohexyl)-5-(1-methyl-1H-benzo[d][1,2,3]triazol-6-yl)-7H-pyrrolo[2,3-d]pyrimidin-2-amine]
0.087 µM | COc1nc(NCC(C)(C)F)nc2[nH]cc(-c3ccn4nccc4n3)c12 [Compound 2325, N-(2-Fluoro-2-methylpropyl)-4-methoxy-5-(pyrazolo[1,5-a]pyrimidin-5-yl)-7H-pyrrolo[2,3-d]pyrimidin-2-amine]
0.0034 µM | CNc1nc(N[C@H]2CC[C@](C)(O)CC2)nc2[nH]cc(-c3ccn4nccc4n3)c12 [Compound 3454, trans-1-methyl-4-((4-(methylamino)-5-(pyrazolo[1,5-a]pyrimidin-5-yl)-7H-pyrrolo[2,3-d]pyrimidin-2-yl)amino)cyclohexan-1-ol]
0.019 µM | COc1nc(NCC(C)(C)F)nc2[nH]cc(-c3cc(F)c4nccn4c3)c12 [Compound 2255, N-(2-Fluoro-2-methylpropyl)-5-(8-fluoroimidazo[1,2-a]pyridin-6-yl)-4-methoxy-7H-pyrrolo[2,3-d]pyrimidin-2-amine]
0.0085 µM | CCO[C@H]1CC[C@@H](Nc2ncc3c(-c4ccn5nccc5n4)c[nH]c3n2)CC1 [Compound 2162, N-(cis-4-Ethoxycyclohexyl)-5-(pyrazolo[1,5-a]pyrimidin-5-yl)-7H-pyrrolo [2,3-d]pyrimidin-2-amine]
0.0594 µM | CC(C)Oc1nc(N[C@H]2CC[C@@](C)(O)CC2)nc2[nH]cc(-c3ccn4nccc4c3)c12 [Compound 2320, cis-4-((4-Isopropoxy-5-(pyrazolo[1,5-a]pyridin-5-yl)-7H-pyrrolo[2,3-d]pyrimidin-2-yl)amino)-1-methylcyclohexan-1-ol]
0.0044 µM | C[C@]1(O)CC[C@@H](Nc2ncc3c(-c4ccc5ncnn5c4)c[nH]c3n2)CC1 [Compound 3018, (1s,4s)-4-((5-([1,2,4]Triazolo[1,5-a]pyridin-6-yl)-7H-pyrrolo[2,3-d]pyrimidin-2-yl)amino)-1-methylcyclohexan-1-ol]
0.0007 µM | COc1nc(N[C@H]2CC[C@@H](OC)CC2)nc2[nH]cc(-c3ccc4nccnc4c3)c12 [Compound 3575, 4-Methoxy-N-(cis-4-methoxycyclohexyl)-5-(quinoxalin-6-yl)-7H-pyrrolo[2,3-d]pyrimidin-2-amine]
0.0034 µM | [2H]C([2H])([2H])O[C@H]1CC[C@@H](Nc2nc(OC)c3c(-c4ccn5nccc5c4)c[nH]c3n2)CC1 [Compound 2210, 4-Methoxy-N-(cis-4-(methoxy-d3)cyclohexyl)-5-(pyrazolo[1,5-a]pyridin-5-yl)-7H-pyrrolo[2,3-d]pyrimidin-2-amine]
0.171 µM | COc1nc(N[C@H]2CC[C@@H](OC)CC2)nc2[nH]cc(-c3ccn4nccc4c3)c12 [Compound 2306, 4-Methoxy-N-(cis-4-methoxycyclohexyl)-5-(pyrazolo[1,5-a]pyridin-5-yl)-7H-pyrrolo[2,3-d]pyrimidin-2-amine]
0.0039 µM | [2H]C([2H])([2H])O[C@H]1CC[C@@H](Nc2ncc3c(-c4cc(F)c5nccn5c4)c[nH]c3n2)CC1 [Compound 2180, 5-(8-Fluoroimidazo[1,2-a]pyridin-6-yl)-N-(cis-4-(methoxy-d3)cyclohexyl)-7H-pyrrolo[2,3-d]pyrimidin-2-amine]
0.107 µM | COc1nc(N[C@@H]2CCOC[C@@H]2F)nc2[nH]cc(-c3ccn4nccc4c3)c12 [Compound 2317, N-((3R,4R)-3-Fluorotetrahydro-2H-pyran-4-yl)-4-methoxy-5-(pyrazolo[1,5-a]pyridin-5-yl)-7H-pyrrolo[2,3-d]pyrimidin-2-amine]
0.269 µM | COc1nc(N[C@H]2CC[C@@H](OC(F)F)CC2)nc2[nH]cc(-c3ccc4nc(C)n(CC(F)F)c4n3)c12 [Compound 2281, 5-(3-(2,2-Difluoroethyl)-2-methyl-3H-imidazo[4,5-b]pyridin-5-yl)-N-(cis-4-(difluoromethoxy)cyclohexyl)-4-methoxy-7H-pyrrolo[2,3-d]pyrimidin-2-amine]
0.112 µM | COC[C@@H](C)Nc1nc(OC)c2c(-c3cnc4nc(C)n(CC(F)F)c4c3)c[nH]c2n1 [Compound 2271, (R)-5-(1-(2,2-Difluoroethyl)-2-methyl-1H-imidazo[4,5-b]pyridin-6-yl)-4-methoxy-N-(1-methoxypropan-2-yl)-7H-pyrrolo[2,3-d]pyrimidin-2-amine]
